K app data for five molecules are collected here from ChEMBL document CHEMBL1127269, “Synthesis and DNA binding properties of a series of N to C linked and imidazole containing analogues of distamycin” (Bioorg Med Chem Lett, 1994).

Molecules are shown by their SMILES.

Holding throughout (assay type): nucleic-acid assay
Test [1] has as its system Nucleic Acid. As to the kind of experiment: Tested for binding association constant against Poly (dA.dT) using ethidium bromide assay.
Test [2] has as its system Nucleic Acid. The test is described as follows: Tested for binding association constant against T4 coliphage DNA using ethidium bromide assay.
In test [3] the test system is Nucleic Acid. The test is described as follows: Tested for binding association constant against calf thymus DNA using ethidium bromide assay. The settings on record: Bos taurus.
Test [4] deals with Nucleic Acid. The test is described as follows: Tested for binding association constant against Poly (dG-dC) using ethidium bromide assay.
The subject of test [5] is Nucleic Acid. The test is described as follows: Tested for binding association constant against calf thymus using ethidium bromide assay. The settings on record: Bos taurus.

For the molecule `Cn1cc(NC(=O)c2cc(NC(=O)c3cc(NC=O)cn3C)cn2C)cc1C(=O)NCCC(=N)N`, the K app in test [1] is 3.48e+07 M⁻¹; in test [2], 650000 M⁻¹; in test [3], 770000 M⁻¹; in test [4] it was 200000 M⁻¹.

For `CN(C)CCNC(=O)c1nc(NC(=O)c2nc(NC(=O)CCCNC(=O)c3nc(NC=O)cn3C)cn2C)cn1C`, the K app in test [1] was 50000 M⁻¹; in test [5], 48000 M⁻¹; in test [2] it was 140000 M⁻¹; in test [4] it was 92000 M⁻¹.

Turning to `CN(C)CCNC(=O)c1nc(NC(=O)c2nc(NC(=O)CCNC(=O)c3nc(NC=O)cn3C)cn2C)cn1C`, the K app in test [1] came out at 250000 M⁻¹; in test [5] it was 1.6e+06 M⁻¹; in test [2], 1.9e+06 M⁻¹; in test [4] it was 5.2e+06 M⁻¹.

In the case of `CN(C)CCNC(=O)c1nc(NC(=O)CCNC(=O)c2nc(NC=O)cn2C)cn1C`, the K app in test [1] came out at 12000 M⁻¹; in test [5], 150000 M⁻¹; in test [2], 140000 M⁻¹; in test [4], 580000 M⁻¹.

For `CN(C)CCNC(=O)c1nc(NC(=O)CCCNC(=O)c2nc(NC=O)cn2C)cn1C`, the K app in test [1] stood at 10000 M⁻¹; in test [5], 10000 M⁻¹; in test [2], 33000 M⁻¹; in test [4], 21000 M⁻¹.
